Assay results from the NIST ThermoML archive (doi:10.1016/j.jct.2013.09.039).
± gives the expanded uncertainty stated by the source.

Test: xn = mol fraction of the nth substance listed
Details: Liquid, Vibrating tube method

Cc1ccc(C)cc1 [1,4-dimethylbenzene] + COC(=O)OC
mass density [kg/m3]
Details	x2 = 0.0432	x2 = 0.195	x2 = 0.3968	x2 = 0.4933	x2 = 0.5296	x2 = 0.5993	x2 = 0.7034	x2 = 0.8023	x2 = 0.8921	x2 = 0.9478
288.15 K, 100 kPa	871.8 ± 4	894.2 ± 4	924.2 ± 4	944.9 ± 4	953.3 ± 4	968.4 ± 4	992.3 ± 4	1010.6 ± 4	1038.1 ± 4	1052.9 ± 4
288.15 K, 5000 kPa	875.5 ± 4	897.8 ± 4	931.9 ± 4	950.4 ± 4	957.3 ± 4	972.4 ± 4	996.2 ± 4	–	1042.5 ± 4	1057.2 ± 4
288.15 K, 10000 kPa	879.1 ± 4	901.3 ± 4	935.7 ± 4	954.1 ± 4	961.2 ± 4	976.3 ± 4	1000.3 ± 4	–	1046.6 ± 4	1061.4 ± 4
288.15 K, 20000 kPa	885.4 ± 4	907.8 ± 4	942.5 ± 4	961.4 ± 4	968.3 ± 4	983.7 ± 4	1007.8 ± 4	–	1054.5 ± 4	1069.4 ± 4
288.15 K, 30000 kPa	891.3 ± 4	914 ± 4	949 ± 4	967.9 ± 4	974.9 ± 4	990.5 ± 4	1014.7 ± 4	–	1061.5 ± 4	1076.7 ± 4
288.15 K, 40000 kPa	897.1 ± 4	920.1 ± 4	955.3 ± 4	974.3 ± 4	980.9 ± 4	997.1 ± 4	1021.4 ± 4	–	1068.7 ± 4	1083.8 ± 4
298.15 K, 100 kPa	863 ± 4	884.5 ± 4	917.8 ± 4	935.8 ± 4	942.5 ± 4	957.3 ± 4	980.5 ± 4	998.4 ± 4	1025.5 ± 4	1040 ± 4
298.15 K, 5000 kPa	867.3 ± 4	888.3 ± 4	922.5 ± 4	940.6 ± 4	947.1 ± 4	962 ± 4	985.4 ± 4	1003.4 ± 4	1030.6 ± 4	1044.9 ± 4
298.15 K, 10000 kPa	870.4 ± 4	892.1 ± 4	925.8 ± 4	944 ± 4	950.7 ± 4	965.7 ± 4	989.1 ± 4	–	1034.7 ± 4	1049 ± 4
298.15 K, 20000 kPa	877.1 ± 4	899.2 ± 4	933.2 ± 4	951.6 ± 4	958.2 ± 4	973.4 ± 4	997 ± 4	–	1042.9 ± 4	1057.5 ± 4
298.15 K, 30000 kPa	883.4 ± 4	905.5 ± 4	939.9 ± 4	958.7 ± 4	965.4 ± 4	980.5 ± 4	1004.4 ± 4	1022.7 ± 4	1050.6 ± 4	1065 ± 4
298.15 K, 40000 kPa	889.1 ± 4	911.7 ± 4	946.5 ± 4	965.1 ± 4	972 ± 4	987.3 ± 4	1011.2 ± 4	1030.1 ± 4	1057.9 ± 4	1072.7 ± 4
308.15 K, 100 kPa	854.3 ± 4	875.2 ± 4	907.6 ± 4	925.2 ± 4	931.7 ± 4	946.3 ± 4	969 ± 4	–	1013.1 ± 4	1027.2 ± 4
308.15 K, 5000 kPa	858.1 ± 4	879.3 ± 4	912.1 ± 4	929.7 ± 4	936.2 ± 4	950.8 ± 4	973.7 ± 4	–	1018 ± 4	1032.1 ± 4
308.15 K, 10000 kPa	862 ± 4	883.3 ± 4	916.2 ± 4	934.1 ± 4	940.4 ± 4	955.2 ± 4	978.2 ± 4	–	1022.7 ± 4	1036.8 ± 4
308.15 K, 20000 kPa	869.1 ± 4	890.7 ± 4	924 ± 4	941.8 ± 4	948.4 ± 4	958.3 ± 4	986.4 ± 4	1004.4 ± 4	1031.5 ± 4	1045.7 ± 4
308.15 K, 30000 kPa	875.7 ± 4	897.5 ± 4	931.2 ± 4	949.4 ± 4	956 ± 4	970.9 ± 4	994.2 ± 4	1012.2 ± 4	1039.7 ± 4	1054 ± 4
308.15 K, 40000 kPa	881.7 ± 4	904 ± 4	937.9 ± 4	956.3 ± 4	963 ± 4	978.1 ± 4	1001.5 ± 4	1019.8 ± 4	1047.4 ± 4	1061.7 ± 4
